Read-outs that look alike come from different tables or passages of the source.
Legend:
Type in all cases: cell-based, human
MDA-MB-231 cells [1] = assay: Intracellular ROS level measurement (DCFDA, flow cytometry); conditions: for ROS accumulation: 10 µM
Procedure: The MDA-MB-231 cells were collected in a buffer with 10% FBS in phosphate-buffered saline (PBS) and transferred in a sterile light-blocking microtube before being stained with 20 µM of 2’,7’-dichlorofluorescein diacetate (DCFDA) (Sigma #D6883, USA) and incubated for 30 minutes. Later, γ-mangostin and α-mangostin were added to the cell suspensions and incubated in a 37 °C incubator (with 5% CO2) before analyzing by a flow cytometer (Calibur) at indicated times (4, 8, 18, and 24 hours). 2’,7’-dichlorofluorescein diacetate reacted with the hydroxyl radicals (·OH) and transformed into fluorescent 2,7-dichlorofluorescein (DCF). The fluorescence intensity of DCF based on 5,000 cells per gate was calculated using the flow cytometer ([29], [30]). In a separate experiment, the cells already stained with DCFDA were treated with 5 mM N-acetyl-L-cysteine (NAC) (Wako #017-05131, Japan) and incubated for an hour before the treatment with γ-mangostin and α-mangostin for the next 24 hours, and the ROS level was subsequently measured. The assay was carried out in triplicate.

Farp = assay: qRT-PCR gene expression, Farp; conditions: MDA-MB-231 cells, RT-qPCR
Procedure: (§1) Total ribonucleic acid (RNA) upon treatment with γ-mangostin and α-mangostin was collected from cells using Sepasol (Nacalai Tesque, Japan). The reverse transcription of complementary deoxyribonucleic acid (cDNA) was performed using ReverTra Ace qPCR RT Kit (Toyobo, Japan), which included DNAse I to remove genomic DNA. Quantitative real-time reverse-transcription polymerase chain reaction (qRT-PCR) was performed using the Thunderbird SYBR qPCR Mix (Toyobo, Japan) on a Real-Time PCR System Light Cycler 96 (Roche, USA). Rac, Farp, CXCR4 ([28]), and latrophilin-2 (LPHN2) primers were used, and GAPDH was detected as the internal control.

MDA-MB-231 cells [2] = assay: Migration assay (wound healing); conditions: 10 μM, 24 and 42 hours, mitomycin C pretreatment, P < 0.05
Procedure: A culture-insert 2 well (cat #ib81176) was placed in the well. Then, 5 × 10^4 cells were seeded on each side of the insert. After 24 hours, the medium was discarded and replaced with the fresh medium containing 0.5% FBS, and the cells were cultured for another 18 hours. The next day, the medium was replaced with 10 µg/mL mitomycin C (Wako #139-18711, Japan) and cultured for 2 hours before treatment with 10 μM γ-mangostin and 10 μM α-mangostin. Right after the treatment, the cells were observed under the microscope at 0 hour. At the indicated times (24 and 42 hours), the cell-free area from three parts (i.e., upper, center, and lower scratch) was measured by analyzing the gap closure rate using ImageJ software ([27]).

MDA-MB-231 cells [3] = assay: Cell viability assay (CCK-8); conditions: MDA-MB-231 cells, 24 hours, CCK-8 assay, triplicate ± SD
Procedure: (§2) The MDA-MB-231 breast cancer cells were cultured in an L-15 medium, enriched with 15% fetal bovine serum (FBS) (Gibco, USA) and 1% penicillin-streptomycin (Gibco, USA), and incubated in CO2-free 37°C incubator.
(§3) The compounds γ-mangostin (#M6824) and α-mangostin (#M3824) were purchased from Sigma-Aldrich (USA). A suspension of cells (20,000 cells/well in 100 μL) was cultured in a 96-well plate. After an initial 24-hour incubation, γ-mangostin or α-mangostin of varying concentrations (1 - 100 μM) was added to the plate, followed by another 24-hour incubation. A solution of Cell Counting Kit-8 (CCK-8) (Dojindo #347-07621, Japan) was added to each well, and the plate was incubated for 2 hours. The absorbance was subsequently read at 450 nm using a microplate reader ([26]). The assay was carried out in triplicate.

[4] = Cell viability assay (CCK-8); conditions: human
Procedure: as §2, §3

LPHN2 = assay: qRT-PCR gene expression, LPHN2; conditions: MDA-MB-231 cells, RT-qPCR
Procedure: as §1

CXCR4 = assay: qRT-PCR gene expression, CXCR4; conditions: MDA-MB-231 cells, RT-qPCR
Procedure: as §1

[5] = longer incubation up to 24 hours, P < 0.0001

| IC50 (MDA-MB-231 cells [3]; Homo sapiens, MDA-MB-231, 24 h) [µM] | IC50 (MDA-MB-231 cells [3]) [µM] | Structure (SMILES) | amount of ROS induced by γ-mangostin and α-mangostin (MDA-MB-231 cells [1]; 5 mM NAC for 1 hour before 10 µM mangostin for 24 hours, P < 0.0001) | expression of Farp (mRNA, normalized with GAPDH) (Farp) | MDA-MB-231 cell migration (gap closure) (MDA-MB-231 cells [2]) | IC50 (MDA-MB-231 cells [3]; Homo sapiens) [µM] | viability at 24 h, 10 µM ([4]; MDA-MB-231 breast cancer cells, MDA-MB-231 cells, 10 µM concentration, read-out: cell viability) [%] | viability at 24 h ([4]; MDA-MB-231 breast cancer cells, MDA-MB-231 cells, concentration below 10 µM, 24 hours) [%] | expression of LPHN2 (mRNA, normalized with GAPDH) (LPHN2) | expression of CXCR4 (mRNA, normalized with GAPDH) (CXCR4) | ROS accumulation (MDA-MB-231 cells [1]; after 4 hours) | ROS accumulation (MDA-MB-231 cells [1]; [5]) | viability at 24 h, 10 µM [4] [%] |
| --- | --- | --- | --- | --- | --- | --- | --- | --- | --- | --- | --- | --- | --- |
|  |  | CC(=O)N[C@@H](CS)C(=O)O [NAC, N-acetyl-L-cysteine, reference compound] | reduced |  |  |  |  |  |  |  |  |  |  |
|  |  | COc1c(O)cc2oc3cc(O)c(CC=C(C)C)c(O)c3c(=O)c2c1CC=C(C)C [α-mangostin] |  | did not alter | a similar outcome was observed | 20 | 80 | 80 to 90 | did not alter | did not alter | decreased | started to rise |  |
| 25 | 18 ± 5 | CC(C)=CCc1c(O)cc2oc3cc(O)c(O)c(CC=C(C)C)c3c(=O)c2c1O [γ-mangostin] |  | downregulated | effectively inhibited MDA-MB-231 cell migration |  |  |  | downregulated | downregulated | decreased | started to rise | 80 |
